Earlier results on two compounds are cited in patent publication US20140322356A1, “CTC BIOMARKER ASSAY TO COMBAT BREAST CANCER BRAIN METASTASIS” (Baylor College of Medicine, priority 2011, published 2014).

Data set [1] deals with MDA-MB-435 carcinoma cells. To be noted: MDA-MB-435 cells selected for metastatic growth in the brain.
The target of another data set is T1, heparanase (HPSE) (Homo sapiens, UniProt Q9Y251).
T1 sequence (Q9Y251 36-543): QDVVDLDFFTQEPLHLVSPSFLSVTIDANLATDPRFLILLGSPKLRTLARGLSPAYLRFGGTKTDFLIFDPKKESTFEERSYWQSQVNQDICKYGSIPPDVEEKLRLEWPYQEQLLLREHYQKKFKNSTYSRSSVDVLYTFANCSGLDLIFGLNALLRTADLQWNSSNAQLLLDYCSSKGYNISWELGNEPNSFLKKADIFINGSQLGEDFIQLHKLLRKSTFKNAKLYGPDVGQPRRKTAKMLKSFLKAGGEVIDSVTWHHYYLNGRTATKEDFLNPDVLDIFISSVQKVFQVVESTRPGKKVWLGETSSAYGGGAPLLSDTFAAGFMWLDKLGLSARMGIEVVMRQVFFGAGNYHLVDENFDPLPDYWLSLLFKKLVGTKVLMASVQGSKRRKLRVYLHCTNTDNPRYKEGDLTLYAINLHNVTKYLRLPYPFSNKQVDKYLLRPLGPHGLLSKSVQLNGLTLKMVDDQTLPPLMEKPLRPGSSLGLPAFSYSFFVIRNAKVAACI
To be noted: statement from literature, no value given.

With `C[C@H](NC(=O)Cc1cc(F)cc(F)c1)C(=O)N[C@H](C(=O)OC(C)(C)C)c1ccccc1` [DAPT], the “tumor cell migration and invasion in vitro” value in data set [1] was “inhibited”.

Regarding Heparin, the inhibition of heparanase result at heparanase (HPSE) is “inhibitor of HPSE”.
